Assay results: US6228889A, “Methods for treatment of conditions associated with lactosylceramide” (priority 1999, dated 2001)

Experiments:
restenosis = conditions: patients, reported in literature; cited from earlier work
Eahy 926 cells = experiment: Superoxide production by intact Eahy 926 (lucigenin chemiluminescence); format: cell-based, human; conditions: 5 μM LacCer after 5 minutes, intact Eahy 926 cells
NADH oxidase = NADH oxidase assay in membrane preparations of Eahy 926 cells; format: biochemical, human; conditions: 5 μM LacCer
NF-kB = NF-kB DNA binding assay (gel mobility shift) in Eahy 926 cells; format: cell-based, human; conditions: 5 μM LacCer
VCAM-1 = VCAM-1 expression in Eahy 926; format: cell-based, human; conditions: Eahy 926, LacCer
P-selectin = P-selectin expression in Eahy 926; format: cell-based, human; conditions: Eahy 926, LacCer
[1] = test system: neutrophil adhesion to Eahy 926 cells; experiment: Confocal microscopic study of adhesion of human neutrophils to Eahy 926 endothelial cells; format: cell-based; conditions: LacCer 5 μM, 4 hours
p150,95 = experiment: Flowcytometric analysis of p150,95 expression on PMNs; format: cell-based, human; conditions: 20 minutes
Procedure: (§1) 10. Flowcytometric Analysis of the Expression of Adhesion Molecules on PMNs. Treated PMNs were rapidly cooled on ice, washed twice with cold washing buffer (PBS containing 0.1% BSA and 0.1% sodium azide), and then incubated with either monoclonal (m) anti-human (h) LFA-1 (CD11 a), m-anti-h Mac-1 (CD 11b), m-anti-h p150,95 (CD 11 c) or m-anti-h L-selectin (all from PharMingen., San Diego, Calif.), followed by FITC-conjugated m-anti-mouse IgG (American Qualex, San Clement, Calif.). The PMNs were gated by forward and side scattering for analysis by FACScan (Becton Dickinson, Cockeysville, Md.).

CD11a/CD18 (LFA-1) = experiment: Flowcytometric analysis of LFA-1 expression on PMNs; format: cell-based, human; conditions: 20 minutes
Procedure: as §1

L-selectin = experiment: Flowcytometric analysis of L-selectin expression on PMNs; format: cell-based, human; conditions: 20 minutes
Procedure: as §1

PMNs [2] = experiment: ROM generation by PMNs (DCFH-DA); format: cell-based, human; conditions: DCFH-DA, 45 minutes
PMNs [3] = experiment: Superoxide generation in PMNs (lucigenin); format: cell-based, human; conditions: 100 nmol LacCer 20 minutes, no inhibitor, PMNs
[4] = test system: PMN adhesion to unstimulated endothelial cells; experiment: PMN-endothelial adhesion assay; format: cell-based, human; conditions: PMNs incubated with LacCer, washed
Procedure: 12. PMN-Endothelial Adhesion Assay. PMNs were labeled fluorescently by incubation with 5 μmol/L Calcein-AM (Molecular Probes) in calcium-free PBS for 20 minutes at 37° C., washed and resuspended in Hanks' balanced salt solution (Gibco) containing 0.2% bovine serum albumin (BSA). These PMNs were then treated with LacCer (or vehicle, 0.05% DMSO), washed 3 times with PBS and then plated on the unstimulated ec monolayers, which had been grown to confluence in 24-well plates. The PMNs (600 μL of 2×10^6 /mL/well) then were incubated with the ecs for 30 minutes at 37° C. Non-adherent PMNs were then removed by gentle washing 3 times with PBS. The residual adherent PMNs (and ecs) were then lysed using 4mmol/L Zwittergent Calbiochem, La Jolla, Calif.) and the plates read on a fluorescence plate reader (Millipore) at EX 480 nm/EM 530 nm. The number of adherent PMNs were expressed as number of PMN/mm^2 ec monolayer, based on the mean fluorescent intensity of each PMN, as determined from a standard curve. 13. Additional Methods. LacCer, ceramide and […] (all from Sigma) were prepared as described in examples below, and used as putative agonists for the stimulation of PMN adhesion molecule expression, assayed by FACScan. […]

PMNs [5] = experiment: [3H] arachidonic acid release from labeled PMNs; format: cell-based, human; conditions: 100 nmol/L LacCer, 30 minutes at 37° C.
NADPH oxidase = conditions: eahy 926 cell membranes, 5 min, 5 µM
Mac-1 (CD11b/CD18) = conditions: pmns, 20 min, 0.1 µM

## CC(C)(Sc1cc(C(C)(C)C)c(O)c(C(C)(C)C)c1)Sc1cc(C(C)(C)C)c(O)c(C(C)(C)C)c1 [probucol]
restenosis
  restenosis after angioplasty: reduce restenosis in some patients

## lactosylceramide [LacCer]
Eahy 926 cells
  maximum generation of O2-: 2.7 nmol/mni/mg protein
NADH oxidase
  NADH oxidase activity in LacCer stimulated/non stimulated membrane preparations: remained unchanged
NF-kB
  nuclear concentration of NF-kB: time dependent increase
VCAM-1
  expression of VCAM-1: did not stimulate measurable expression
P-selectin
  expression of P-selectin: did not stimulate measurable expression
[1]
  adhesion of neutrophils to the endothelial cell monolayer: markedly stimulated
p150,95; LacCer 200 nmol/L
  level of p150,95: decreased
p150,95; LacCer 50-100 nmol/L
  level of p150,95: increased
CD11a/CD18 (LFA-1); LacCer higher concentrations
  level of CD11a/CD18 (LFA-1): downregulated
CD11a/CD18 (LFA-1); LacCer lower concentrations
  level of CD11a/CD18 (LFA-1): did not change
L-selectin; LacCer higher concentrations
  level of L-selectin: downregulated
L-selectin; LacCer lower concentrations
  level of L-selectin: did not change
PMNs [2]
  ROM stimulation in PMNs: positive, dose-dependent response
PMNs [3]
  superoxide levels compared with controls: about two
[4]
  PMN adhesion to unstimulated ec monolayers: increased
PMNs [5]
  [3H] AA release from labeled PMNs: increased
ICAM-1; eahy 926 cells, 6 h, 5 µM
  maximal expression of ICAM-1 as compared to control: 7 fold
ICAM-1; intact Eahy 926 cells, GSLs 10 μM, gangliosides up to 50 μM
  stimulation of ICAM-1 expression by GSLs: specifically stimulated
NADPH oxidase
  stimulation of NADPH oxidase activity versus non-stimulated cell membrane preparations: about 3 fold
Mac-1 (CD11b/CD18)
  maximum stimulation of Mac-1 level compared to control: 2.5 fold
